Source: ChEMBL document CHEMBL1914442, “Metabolism-directed design of oxetane-containing arylsulfonamide derivatives as γ-secretase inhibitors” (J Med Chem, 2011)

Tests used:
[1] = Apparent permeability from apical to basolateral side of dog RRCK cells by transwell assay; format: ADME, cell-based, Canis lupus familiaris, MDCKII-LE; settings: MDCK
[2] = physchem; settings: octanol/water, pH 7.4
[3] = Oral bioavailability in rat; format: ADME, organism-based; settings: in vivo
[4] = Oral bioavailability in mouse; format: ADME, organism-based; settings: in vivo
[5] = Drug uptake in wild-type mouse 129/sve cerebrospinal fluid at 100 mg/kg, sc administered as a single dose measured 1 hr post-dose by LC-MS analysis; format: ADME, organism-based; design: dose 100 mg/kg, route subcutaneous; settings: read-out: Drug uptake
[6] = Drug uptake in wild-type mouse 129/sve cerebrospinal fluid at 100 mg/kg, sc administered as a single dose measured 4 hr post-dose by LC-MS analysis; format: ADME, organism-based; design: dose 100 mg/kg, route subcutaneous; settings: read-out: Drug uptake

Row | Structure (SMILES) | Papp A→B [1] [×10⁻⁶ cm/s] | logD [2] | bioavailability [3] [%] | bioavailability [4] [%] | concentration at 1 h [5] [nM] | concentration at 4 h [6] [nM]
1 | NC(=O)[C@@H](CCC(F)(F)F)N(C[C@H]1CCCCO1)S(=O)(=O)c1ccc(Cl)cc1 | 13.4 | 4.3 | – | – | – | –
2 | NC(=O)[C@@H](CCC(F)(F)F)N(CC1CCCC1)S(=O)(=O)c1ccc(Cl)cc1 | 6.01 | 5.15 | – | – | – | –
3 | NC(=O)[C@@H](CCC(F)(F)F)N(CC1CCCCC1)S(=O)(=O)c1ccc(Cl)cc1 | 4.42 | – | – | – | – | –
4 | NC(=O)[C@@H](CCC(F)(F)F)N(C[C@@H]1CCCOC1)S(=O)(=O)c1ccc(Cl)cc1 | 18.4 | 3.7 | – | – | – | –
5 | C[C@@H]1C[C@@H](CN([C@H](CCC(F)(F)F)C(N)=O)S(=O)(=O)c2ccc(Cl)cc2)O1 | 21.2 | – | – | – | – | –
6 | NC(=O)[C@@H](CCC(F)(F)F)N(C[C@@H]1COCCO1)S(=O)(=O)c1ccc(Cl)cc1 | 27.3 | 2.75 | – | – | – | –
7 | CC1(C)CO[C@@H]1CN([C@H](CCC(F)(F)F)C(N)=O)S(=O)(=O)c1ccc(Cl)cc1 | 22.3 | 3.9 | – | – | – | –
8 | NC(=O)[C@@H](CCC(F)(F)F)N(CC1CCC1)S(=O)(=O)c1ccc(Cl)cc1 | 11.1 | – | – | – | – | –
9 | NC(=O)[C@@H](CCC(F)(F)F)N(C[C@H]1CCOC1)S(=O)(=O)c1ccc(Cl)cc1 | 21.7 | 2.8 | – | – | – | –
10 | C[C@H]1C[C@@H](CN([C@H](CCC(F)(F)F)C(N)=O)S(=O)(=O)c2ccc(Cl)cc2)O1 | 21.8 | – | – | – | – | –
11 | NC(=O)[C@@H](CCC(F)(F)F)N(C[C@@H]1CCCO1)S(=O)(=O)c1ccc(Cl)cc1 | 22.4 | 3.5 | – | – | – | –
12 | NC(=O)[C@@H](CCC(F)(F)F)N(C[C@@H]1CCOC1)S(=O)(=O)c1ccc(Cl)cc1 | 20.5 | 2.8 | – | – | – | –

Results, then the molecule that gave them:

Row | Papp A→B [1] [×10⁻⁶ cm/s] | logD [2] | bioavailability [3] [%] | bioavailability [4] [%] | concentration at 1 h [5] [nM] | concentration at 4 h [6] [nM] | Structure (SMILES)
13 | 20.6 | 2.75 | – | – | – | – | NC(=O)[C@@H](CCC(F)(F)F)N(C[C@H]1COCCO1)S(=O)(=O)c1ccc(Cl)cc1
14 | 19.1 | 3.6 | – | – | – | – | NC(=O)[C@@H](CCC(F)(F)F)N(C[C@H]1CCCO1)S(=O)(=O)c1ccc(Cl)cc1
15 | 28.7 | 2.6 | – | – | – | – | NC(=O)[C@@H](CCC(F)(F)F)N(C[C@H]1CCO1)S(=O)(=O)c1ccc(Cl)cc1
16 | 25.4 | 2.5 | < 5 | < 5 | – | – | NC(=O)[C@@H](CCC(F)(F)F)N(CC1COC1)S(=O)(=O)c1ccc(Cl)cc1
17 | 18.1 | 3.8 | – | – | – | – | CC1(C)C[C@H](CN([C@H](CCC(F)(F)F)C(N)=O)S(=O)(=O)c2ccc(Cl)cc2)O1
18 | 26.4 | 3.8 | – | – | – | – | CC1(C)CO[C@H]1CN([C@H](CCC(F)(F)F)C(N)=O)S(=O)(=O)c1ccc(Cl)cc1
19 | 34.9 | 2.6 | < 5 | < 5 | 447 | 59.6 | NC(=O)[C@@H](CCC(F)(F)F)N(C[C@@H]1CCO1)S(=O)(=O)c1ccc(Cl)cc1
20 | 15.4 | 4.3 | – | – | – | – | NC(=O)[C@@H](CCC(F)(F)F)N(C[C@@H]1CCCCO1)S(=O)(=O)c1ccc(Cl)cc1
21 | 26.3 | 3.5 | – | – | – | – | NC(=O)[C@@H](CCC(F)(F)F)N(CC1CCOCC1)S(=O)(=O)c1ccc(Cl)cc1
22 | 18.2 | 3.6 | – | – | – | – | NC(=O)[C@@H](CCC(F)(F)F)N(C[C@H]1CCCOC1)S(=O)(=O)c1ccc(Cl)cc1
23 | 14.9 | 3.8 | < 5 | < 5 | – | – | CC1(C)C[C@@H](CN([C@H](CCC(F)(F)F)C(N)=O)S(=O)(=O)c2ccc(Cl)cc2)O1
